Data as given in US20130245081A1, “Compositions and Methods for Treating Amyotrophic Lateral Sclerosis” (priority 2009, published 2013).

Test: clinical
Conditions: for CL/F / Fe / Ue / λz: Day 7, fasted; for CL renal: urine and plasma
Source text: A total of 54 subjects (30 subjects in Study CL001 and 24 subjects in Study CL002) were enrolled. Healthy, non-smoking, male and female subjects 30 to 60 years of age, inclusive, with normal or clinically acceptable physical examination and electrocardiogram (ECG) findings, systolic (90 to 140 mmHg) and diastolic (50 to 90 mmHg) blood pressure, and resting heart rate (50 to 100 bpm) who were willing to provide signed, written informed consent were eligible for enrollment. Female volunteers had to be of non-childbearing potential with negative pregnancy test results at screening and clinic check-in. Subjects with any history of neurodegenerative illnesses were excluded. The use of over-the-counter medications within 7 days prior to enrollment or prescription medications within 12 weeks prior to enrollment was prohibited.
In the second study, subjects were enrolled in 3 successive double-blind, placebo-controlled, panels of 8 subjects (n=6 active, n=2 placebo per panel).
Matching placebo capsules contained equivalent weights of microcrystalline cellulose. Capsules were administered orally with water. […] Subjects in the fasted cohorts were required to fast overnight for a minimum of 10 hours before dose administration. Subjects in the food cohort were required to fast overnight for a minimum of 10 hours before dose administration, with exception of the high fat/high calorie meal that was administered 30 minutes prior to drug administration. […] All available safety data were reviewed under blinded conditions to monitor for serious safety or tolerability events prior to proceeding with dose escalations.
In both studies, a complete collection was attempted for each urine sample interval.
Blood samples were collected into a 10 mL dipotassium ethylenediaminetetraacetic acid (K2-EDTA) Vacutainer® via an indwelling peripheral intravenous cannula or by direct venipuncture. Within 15 minutes of collection, the samples were centrifuged at 3000 rpm for 10 minutes at 4° C. After centrifugation, the plasma was divided into 2 aliquots of at least 1.5 mL each, placed into polypropylene containers, frozen, and stored at −20° C. until they were shipped for analysis.
Urine collected in each interval was well mixed, the pH was recorded, the total volume (or the weight and specific gravity) was recorded, and 2 aliquots of 20 mL each were collected into polypropylene containers and stored at −20° C. until they were shipped for analysis. All plasma and urine sample were shipped frozen on dry ice in 2 separate shipments per group (1 set of aliquots per shipment) to Eurofins AvTech Laboratories Inc. (Kalamazoo, Mich.) for bioanalytical analysis.
Plasma and urine concentrations were measured using validated liquid chromatography/mass spectrometry/mass spectrometry (LC/MS/MS) methods. […] The analytical procedure for analysis of plasma samples used a 100 μL aliquot of K2EDTA human plasma. The plasma sample was spiked with 20 μL of working internal standard solution and 20 μL of type 1 water for subject samples and QCs and 20 μL of the appropriate intermediate standard solution for standards. One hundred microliters ([…]) of 50% ammonium hydroxide solution was added to the sample followed by vortex mixing. One milliliter (1 mL) of tertbutyl methyl ether was then added and the sample was vortexed to extract the analyte and internal standard into the organic layer, followed by separation using flash freezing. The organic layer was decanted, evaporated to dryness, and the sample was reconstituted with 0.5 mL of reconstitution solution (0.1% ammonium hydroxide in 50:50 methanol; type 1 water (v/v/v)). A 10 μL aliquot of this reconstituted sample was injected into an LC/MS/MS system for analysis.

[1] = both, human, plasma, oral, 50 mg
[2] = both, human, plasma, oral, 100 mg
[3] = both, human, plasma, oral, 150 mg

CCCN[C@@H]1CCc2nc(N)sc2C1 [dexpramipexole, (6R)-2-amino-4,5,6,7-tetrahydro-6-(propylamino)benzothiazole]
CL/F (50 mg Twice Daily): 437 ± 60.8 mL/min
Fe (50 mg Twice Daily): 87.2 ± 10.26 % dose
Ue (50 mg Twice Daily): 32.5 ± 3.82 mg
λz (50 mg Twice Daily): 0.1039 ± 0.0193 h⁻¹
CL/F (100 mg Twice Daily): 510 ± 57.4 mL/min
Fe (100 mg Twice Daily): 75.5 ± 3.51 % dose
Ue (100 mg Twice Daily): 56.3 ± 2.62 mg
λz (100 mg Twice Daily): 0.0893 ± 0.0117 h⁻¹
CL/F (150 mg Twice Daily): 507 ± 74.1 mL/min
Fe (150 mg Twice Daily): 89.6 ± 7.83 % dose
Ue (150 mg Twice Daily): 100.3 ± 8.76 mg
λz (150 mg Twice Daily): 0.0895 ± 0.0184 h⁻¹
dose recovered in the urine as unchanged parent drug (12-hour steady-state dosing period): approximately 84%
AUC(0-t) [1]: 1450 ± 221 ng·h/mL
Cmax at 7 day [1]: 191 ± 20.9 ng/mL
Tmax [1]: 1.75 h
Vd/F [1]: 255 ± 24 L
half-life [1]: 6.87 ± 1.29 h
AUC(0-t) [2]: 2470 ± 304 ng·h/mL
Cmax at 7 day [2]: 306 ± 54.8 ng/mL
Tmax [2]: 2.02 h
Vd/F [2]: 348 ± 61.7 L
half-life [2]: 7.89 ± 1.19 h
AUC(0-t) [3]: 3750 ± 575 ng·h/mL
Cmax [3]: 479 ± 74.6 ng/mL
Tmax [3]: 2.18 h
Vd/F [3]: 349 ± 75.8 L
half-life [3]: 8.05 ± 1.8 h
CL renal (both, human, oral, 50 mg): 385 ± 90.3 mL/min
CL renal (both, human, oral, 100 mg): 382 ± 62.7 mL/min
CL renal (both, human, oral, 150 mg): 451 mL/min
